Values quoted from earlier work in patent publication US11331266B1, “Antioxidant free, norepinephrine bitartrate injection in amber glass vials” (Medefil, Inc., priority 2020, dated 2022).

Settings: literature, Int. J. Toxicol. 2002; 21 Suppl 2:19-94

## COc1ccc(O)c(C(C)(C)C)c1 [butylated hydroxyl anisole]
  organ damage: some renal and hepatic damage
